Reference: patent publication US4086196A, “Parathyroid hormone” (Armour Pharmaceutical Company, priority 1975, dated 1978)

What was measured:
[1] = test system: adenylate cyclase in rat renal cortical homogenates; experiment: In vitro rat kidney adenylate cyclase bioassay; format: biochemical; conditions: mean potency with 95% confidence limits; against house standard Sephadex-BPTH calibrated to MRC Standard A
Procedure: (§1) In vitro bioassays based on the activation of adenylate cyclase in rat renal cortical homogenates were carried out by the procedure of Marcus and Aurbach (Endocrinology, (1969), 85, 801-810). In vivo bioassays were performed by the method of Parsons, Reit and Robinson (Endocrinology, (1973), 92, 454-462), a procedure based on increase in the serum calcium in the chick after intravenous injection. A house standard of highly purified bovine parathyroid hormone ("Sephadex-BPTH") calibrated against Medical Research Council Standard A (National Institute for Medical Research, London, England) was used for both in vivo and in vitro assays. The biological activities of the synthetic HPTH-(1-34), and the native HPTH-(1-84)-peptides in the in vitro rat kidney adenylate cyclase assay and the in vivo chick hypercalcemia assay are shown in Table 2. Included for comparison are the corresponding data on the native bovine-(1-84) and the synthetic bovine-(1-34) peptides, as well as the analogue [Ala^1 ]-HPTH-(1-34).

[2] = test system: serum calcium in the chick; experiment: In vivo chick hypercalcemia bioassay; conditions: mean potency with 95% confidence limits; intravenous injection; against house standard Sephadex-BPTH calibrated to MRC Standard A
Procedure: as §1

[3] = bioassay systems in vivo and in vitro; cited from earlier work

Molecule	In vitro Rat kidney adenylate cyclase [1]	In vivo Chick hypercalcemia [2]	potency relative to whole bovine parathyroid hormone [3]
CC[C@H](C)[C@H](NC(=O)[C@H](CCC(=O)O)NC(=O)[C@H](CO)NC(=O)[C@@H](NC(=O)[C@@H](N)CO)C(C)C)C(=O)N[C@@H](CCC(N)=O)C(=O)N[C@@H](CC(C)C)C(=O)N[C@@H](CCSC)C(=O)N[C@@H](Cc1c[nH]cn1)C(=O)N[C@@H](CC(N)=O)C(=O)N[C@@H](CC(C)C)C(=O)NCC(=O)N[C@@H](CCCCN)C(=O)N[C@@H](Cc1c[nH]cn1)C(=O)N[C@@H](CC(C)C)C(=O)N[C@@H](CC(N)=O)C(=O)N[C@@H](CO)C(=O)N[C@@H](CCSC)C(=O)N[C@@H](CCC(=O)O)C(=O)N[C@@H](CCCNC(=N)N)C(=O)N[C@H](C(=O)N[C@@H](CCC(=O)O)C(=O)N[C@@H](Cc1c[nH]c2ccccc12)C(=O)N[C@@H](CC(C)C)C(=O)N[C@@H](CCCNC(=N)N)C(=O)N[C@@H](CCCCN)C(=O)N[C@@H](CCCCN)C(=O)N[C@@H](CC(C)C)C(=O)N[C@@H](CCC(N)=O)C(=O)N[C@@H](CC(=O)O)C(=O)N[C@H](C(=O)N[C@@H](Cc1c[nH]cn1)C(=O)N[C@@H](CC(N)=O)C(=O)N[C@@H](Cc1ccccc1)C(=O)O)C(C)C)C(C)C [HPTH-(1-34)]	1030 (930-1140) MRCU/mg	7400(5700-9700) MRCU/mg	
CC[C@H](C)[C@H](NC(=O)[C@H](CCC(=O)O)NC(=O)[C@H](CO)NC(=O)[C@@H](NC(=O)[C@H](C)N)C(C)C)C(=O)N[C@@H](CCC(N)=O)C(=O)N[C@@H](CC(C)C)C(=O)N[C@@H](CCSC)C(=O)N[C@@H](Cc1c[nH]cn1)C(=O)N[C@@H](CC(N)=O)C(=O)N[C@@H](CC(C)C)C(=O)NCC(=O)N[C@@H](CCCCN)C(=O)N[C@@H](Cc1c[nH]cn1)C(=O)N[C@@H](CC(C)C)C(=O)N[C@@H](CC(N)=O)C(=O)N[C@@H](CO)C(=O)N[C@@H](CCSC)C(=O)N[C@@H](CCC(=O)O)C(=O)N[C@@H](CCCNC(=N)N)C(=O)N[C@H](C(=O)N[C@@H](CCC(=O)O)C(=O)N[C@@H](Cc1c[nH]c2ccccc12)C(=O)N[C@@H](CC(C)C)C(=O)N[C@@H](CCCNC(=N)N)C(=O)N[C@@H](CCCCN)C(=O)N[C@@H](CCCCN)C(=O)N[C@@H](CC(C)C)C(=O)N[C@@H](CCC(N)=O)C(=O)N[C@@H](CC(=O)O)C(=O)N[C@H](C(=O)N[C@@H](Cc1c[nH]cn1)C(=O)N[C@@H](CC(N)=O)C(=O)N[C@@H](Cc1ccccc1)C(=O)O)C(C)C)C(C)C [[Ala^1]-HPTH-(1-34)]	4085(3550-4700) MRCU/mg	4600(3500-6000) MRCU/mg	
BPTH-(1-34): synthetic peptide corresponding to 1-34 residues of bovine parathyroid hormone [reference compound]	5400(3900-8000) MRCU/mg	7700(5200-11100) MRCU/mg	equipotent
HPTH-(1-84) (native): native human parathyroid hormone (1-84)	350 (275-425) MRCU/mg		
BPTH-(1-84) (native): native bovine parathyroid hormone (1-84) (protein, UniProt P01268 32-115, looked up, Parathyroid hormone) Parathyroid hormone: AVSEIQFMHNLGKHLSSMERVEWLRKKLQDVHNFVALGASIAYRDGSSQRPRKKEDNVLVESHQKSLGEADKADVDVLIKAKPQ	3000(2500-4000) MRCU/mg	2500(2100-4000) MRCU/mg	
